Laboratory results as given in publication PMC7216583 (Parasites & Vectors, 2020).
Structures can show the parent of a compound that is named as a salt. Where two headings read alike, the source gives them in different places.

How the values were obtained:
[1] = tested on: Toxoplasma gondii RH-2F tachyzoites; test: microbe, parasite or virus in culture; settings: 72 h
Bcl-w = molecular target: Bcl-w; parameters: method as in library vendor description; settings: ref library vendor description; cited from earlier work
HIV-I integrase (IN) = molecular target: HIV-I integrase (IN); parameters: method as in S-inhibitor; settings: ref S-inhibitor; cited from earlier work
Aβ42 = tested on: Aβ42; parameters: method as in library vendor description; settings: γ-secretase inhibitor; ref library vendor description; cited from earlier work
Aβ40 = tested on: Aβ40; parameters: method as in library vendor description; settings: γ-secretase inhibitor; ref library vendor description; cited from earlier work
IKKε = tested on: IKKε; parameters: method as in library vendor description; settings: ref library vendor description; cited from earlier work
TBK1 = tested on: TBK1; parameters: method as in library vendor description; settings: ref library vendor description; cited from earlier work
PDK-1 = tested on: PDK-1; parameters: method as in library vendor description; settings: ref library vendor description; read-out: IC50 PDK-1; cited from earlier work
[2] = parameters: method as in library vendor description; settings: target not given; ref library vendor description; read-out: IC50 (DNA-damaging agent); cited from earlier work
HPDE4 = tested on: HPDE4; parameters: method as in S-inhibitor; settings: ref S-inhibitor; cited from earlier work
LPDE4 = tested on: LPDE4; parameters: method as in S-inhibitor; settings: ref S-inhibitor; cited from earlier work
HDAC3 = tested on: HDAC3; parameters: method as in S-inhibitor; settings: ref S-inhibitor; cited from earlier work
HDAC8 = tested on: HDAC8; parameters: method as in S-inhibitor; settings: ref S-inhibitor; cited from earlier work
microtubule [3] = tested on: microtubule; parameters: method as in library vendor description; settings: ref library vendor description; cited from earlier work
microtubule [4] = tested on: microtubule; parameters: method as in S-inhibitor; settings: ref S-inhibitor; cited from earlier work
ROCK2 = tested on: ROCK2; parameters: method as in S-inhibitor; settings: ref S-inhibitor; cited from earlier work
ROCK1 = tested on: ROCK1; parameters: method as in S-inhibitor; settings: ref S-inhibitor; cited from earlier work
PI3Kδ = tested on: PI3Kδ; parameters: method as in library vendor description; settings: ref library vendor description; cited from earlier work
PI3Kβ = tested on: PI3Kβ; parameters: method as in library vendor description; settings: ref library vendor description; cited from earlier work
mTOR = tested on: mTOR; parameters: method as in library vendor description; settings: ref library vendor description; cited from earlier work
PI3Kα = tested on: PI3Kα; parameters: method as in library vendor description; settings: ref library vendor description; cited from earlier work
PI3Kγ = tested on: PI3Kγ; parameters: method as in library vendor description; settings: ref library vendor description; cited from earlier work
KSP (HsEg5) = molecular target: KSP (HsEg5); parameters: method as in S-inhibitor; settings: ref S-inhibitor; cited from earlier work
PDGFRα = tested on: PDGFRα; parameters: method as in S-inhibitor; settings: ref S-inhibitor; cited from earlier work
c-Kit [5] = tested on: c-Kit; parameters: method as in S-inhibitor; settings: ref S-inhibitor; cited from earlier work
VEGFR2 = tested on: VEGFR2; parameters: method as in S-inhibitor; settings: ref S-inhibitor; cited from earlier work
mTORC2 = tested on: mTORC2; parameters: method as in library vendor description; settings: ref library vendor description; cited from earlier work
mTORC1 = tested on: mTORC1; parameters: method as in library vendor description; settings: ref library vendor description; cited from earlier work
Lck = tested on: Lck; parameters: method as in library vendor description; settings: ref library vendor description; cited from earlier work
CSF-1R = tested on: CSF-1R; parameters: method as in library vendor description; settings: ref library vendor description; cited from earlier work
c-Kit [6] = tested on: c-Kit; parameters: method as in library vendor description; settings: ref library vendor description; cited from earlier work
KDR = tested on: KDR; parameters: method as in library vendor description; settings: ref library vendor description; cited from earlier work
c-Raf = tested on: c-Raf; parameters: method as in library vendor description; settings: ref library vendor description; cited from earlier work
Flt = tested on: Flt; parameters: method as in library vendor description; settings: ref library vendor description; cited from earlier work
in vitro = settings: human, Host viability (%) mean
Aurora B = tested on: Aurora B; parameters: method as in S-inhibitor; settings: ref S-inhibitor; cited from earlier work
Aurora C = tested on: Aurora C; parameters: method as in S-inhibitor; settings: ref S-inhibitor; cited from earlier work
sterol C14ɑ demethylase = molecular target: sterol C14ɑ demethylase; parameters: method as in library vendor description; settings: ref library vendor description; cited from earlier work
JAK1 = settings: read-out: IC50, JAK1; ref S-inhibitor; cited from earlier work
JAK3 = settings: read-out: IC50, JAK3; ref S-inhibitor; cited from earlier work
MAO-B = tested on: MAO-B; parameters: method as in S-inhibitor; settings: ref S-inhibitor; cited from earlier work
human 17,20-lyase = molecular target: human 17,20-lyase; parameters: method as in library vendor description; settings: ref library vendor description; cited from earlier work
rat 17,20-lyase = molecular target: rat 17,20-lyase; parameters: method as in library vendor description; settings: ref library vendor description; cited from earlier work
Flk-1/KDR = molecular target: Flk-1/KDR; parameters: method as in S-inhibitor; settings: ref S-inhibitor; cited from earlier work
PDGFRβ = molecular target: PDGFRβ; parameters: method as in S-inhibitor; settings: ref S-inhibitor; cited from earlier work
ROCK = tested on: ROCK; parameters: method as in S-inhibitor; settings: ref S-inhibitor; cited from earlier work
[7] = molecular target: farnesyltransferase (FTase); parameters: method as in S-inhibitor; settings: ref S-inhibitor; cited from earlier work
HCV polymerase = molecular target: HCV polymerase; parameters: method as in S-inhibitor; settings: ref S-inhibitor; cited from earlier work
Endothelin A (ETA) = tested on: Endothelin A (ETA); parameters: method as in S-inhibitor; settings: ref S-inhibitor; cited from earlier work
Tie2 = tested on: Tie2; parameters: method as in library vendor description; settings: ref library vendor description; cited from earlier work
[8] = tested on: human foreskin fibroblasts (HFFs)
Ron = tested on: Ron; parameters: method as in library vendor description; settings: ref library vendor description; cited from earlier work
VEGFR1 = tested on: VEGFR1; parameters: method as in library vendor description; settings: ref library vendor description; cited from earlier work
VEGFR3 = tested on: VEGFR3; parameters: method as in library vendor description; settings: ref library vendor description; cited from earlier work
[9] = tested on: Toxoplasma gondii RH-2F tachyzoites; settings: preliminary screen, mean
[10] = read-out: Parasite inhibition (%) mean, preliminary screen, mean
[11] = read-out: Parasite inhibition (%) mean

Compound: CC1(C)CCC(c2ccc(Cl)cc2)=C(CN2CCN(c3ccc(C(=O)NS(=O)(=O)c4ccc(N[C@H](CCN5CCOCC5)CSc5ccccc5)c(S(=O)(=O)C(F)(F)F)c4)cc3)CC2)C1 [ABT-263 (Navitoclax)]
- inhibition of growth at 5 µM [1, 10]: 33.5%
- Ki (Bcl-w): ≤ 1 nM

Compound: Cn1c(N2CCCCS2(=O)=O)nc(C(=O)NCc2ccc(F)cc2)c(O)c1=O [BMS-707035]
- IC50 (HIV-I integrase (IN)): 15 nM
- inhibition of growth at 5 µM [1, 10]: 0.2%

Compound: NC(=O)[C@@H](CCC(F)(F)F)N(Cc1ccc(-c2ncon2)cc1F)S(=O)(=O)c1ccc(Cl)cc1 [BMS-708163 (Avagacestat)]
- IC50 (Aβ42): 0.27 nM
- inhibition of growth at 5 µM [1, 10]: 8.7%
- IC50 (Aβ40): 0.3 nM

Compound: O=C(NCCCNc1nc(Nc2cccc(NC(=O)N3CCCC3)c2)ncc1I)c1cccs1 [BX-795]
- IC50 (IKKε): 41 nM
- IC50 (TBK1): 6 nM
- inhibition of growth at 5 µM [1, 10]: 0.7%
- IC50 (PDK-1): 111 nM

Compound: Cn1c(CCCC(=O)O)nc2cc(N(CCCl)CCCl)ccc21 [Bendamustine HCL]
- inhibition of growth at 5 µM [1, 11]: 0.4%
- IC50 [2]: 50000 nM

Compound: COc1ccc(C2(C#N)CCC(C(=O)O)CC2)cc1OC1CCCC1 (stereo not shown) [Cilomilast (SB-207499)]
- IC50 (HPDE4): 120 nM
- inhibition of growth at 5 µM [1, 10]: 65.2%
- IC50 (LPDE4): 100 nM

Compound: Cc1cc(Cl)ccc1OCCCC(=O)NO [Droxinostat]
- IC50 (HDAC3): 16900 nM
- inhibition of growth at 5 µM [1, 10]: 7.2%
- IC50 (HDAC8): 1460 nM

Compound: C/C(=C\c1csc(C)n1)[C@@H]1C[C@@H]2O[C@@H]2CCC[C@H](C)[C@H](O)[C@@H](C)C(=O)C(C)(C)[C@@H](O)CC(=O)O1 [Epothilone A]
- inhibition of growth at 5 µM [1, 10]: 20.4%
- EC0.01 microtubule-stabilizing (microtubule [3]): Epothilone A is a Taxol-like microtubule-stabilizing agent with EC0.01 of 2 μM.

Compound: C/C(=C\c1csc(C)n1)[C@H]1C[C@@H]2O[C@]2(C)CCC[C@H](C)[C@H](O)[C@@H](C)C(=O)C(C)(C)[C@H](O)CC(=O)O1 [Epothilone B (EPO906)]
- inhibition of growth at 5 µM [1, 11]: 36.5%
- EC0.01, microtubule stabilization (microtubule [4]): Epothilone B is a Taxol-like microtubule-stabilizing agent with EC0.01 of 1.8 μM.

Compound: CC1=C(C(=O)Nc2cc3cn[nH]c3cc2F)C(c2ccc(C(F)(F)F)cc2)CC(=O)N1 (stereo not shown) [GSK429286A]
- inhibition of growth at 5 µM [1, 10]: 0.9%
- IC50 (ROCK2): 63 nM
- IC50 (ROCK1): 14 nM

Compound: O=C1NC(=O)/C(=C/c2ccc3nccc(-c4ccncc4)c3c2)S1 [GSK1059615]
- IC50 (PI3Kδ): 2 nM
- IC50 (PI3Kβ): 0.6 nM
- inhibition of growth at 5 µM [1, 10]: 40.6%
- IC50 (mTOR): 12 nM
- IC50 (PI3Kα): 0.4 nM
- IC50 (PI3Kγ): 5 nM

Compound: Cc1ccc(C(=O)N(CCCN)[C@@H](c2nc3cc(Cl)ccc3c(=O)n2Cc2ccccc2)C(C)C)cc1 [Ispinesib (SB-715992)]
- inhibition of growth at 5 µM [1, 10]: 2.1%
- Ki (KSP (HsEg5)): 1.7 nM

Compound: COc1cc2nccc(Oc3ccc(NC(=O)Nc4ccc(F)cc4F)c(F)c3)c2cc1OC [Ki8751]
- IC50 (PDGFRα): 67 nM
- inhibition of growth at 5 µM [1, 10]: -45.8%
- IC50 (c-Kit [5]): 40 nM
- IC50 (VEGFR2): 0.9 nM

Compound: COc1ccc(-c2ccc3c(N4CCOCC4)nc(N4C[C@@H](C)O[C@@H](C)C4)nc3n2)cc1CO [Ku-0063794]
- inhibition of growth at 5 µM [1, 10]: 31.4%

Compound: O=C(Nc1ccc(OC(F)(F)F)cc1)c1sccc1NCc1ccnc2ccccc12 [OSI-930]
- inhibition of growth at 5 µM [1, 10]: 1%
- IC50 (Lck): 22 nM
- IC50 (CSF-1R): 15 nM
- IC50 (c-Kit [6]): 80 nM
- IC50 (KDR): 9 nM
- IC50 (c-Raf): 41 nM
- IC50 (Flt): 8 nM

Compound: CCc1cccc(CC)c1NC(=O)N1Cc2n[nH]c(NC(=O)c3ccc(N4CCN(C)CC4)cc3)c2C1 [PHA-680632]
- inhibition of growth at 5 µM [1, 10]: 88.8%
- viability at 72 h (in vitro): 45.2%
- IC50 (Aurora B): 135 nM
- IC50 (Aurora C): 120 nM

Compound: CC[C@@H]([C@H](C)O)n1ncn(-c2ccc(N3CCN(c4ccc(OC[C@@H]5CO[C@@](Cn6cncn6)(c6ccc(F)cc6F)C5)cc4)CC3)cc2)c1=O [Posaconazole]
- inhibition of growth at 5 µM [1, 10]: 0.6%
- IC50 (sterol C14ɑ demethylase): 0.25 nM

Compound: N#CC[C@H](C1CCCC1)n1cc(-c2ncnc3[nH]ccc23)cn1 [Ruxolitinib (INCB018424)]
- inhibition of growth at 5 µM [1, 10]: 10.2%

Compound: C[C@H](NCc1ccc(OCc2cccc(F)c2)cc1)C(N)=O [Safinamide Mesylate (FCE28073)]
- inhibition of growth at 5 µM [1, 10]: 5.9%

Compound: CNC(=O)c1ccc2cc(C3(O)CCn4cncc43)ccc2c1 (stereo not shown) [TAK-700 (Orteronel)]
- IC50 (human 17,20-lyase): 38 nM
- inhibition of growth at 5 µM [1, 10]: 0.9%
- IC50 (rat 17,20-lyase): 54 nM

Compound: Cc1[nH]c(/C=C2\C(=O)Nc3ccccc32)c(C)c1CCC(=O)O [TSU-68 (SU6668)]
- inhibition of growth at 5 µM [1, 10]: 2.8%
- Ki (Flk-1/KDR): 2100 nM
- Ki (PDGFRβ): 8 nM

Compound: O=C(NCc1ccccc1)c1csc(Nc2ccncn2)n1 [Thiazovivin]
- inhibition of growth at 5 µM [1, 10]: -0.7%
- IC50 (ROCK): ~500 nM

Compound: Cn1cncc1[C@@](N)(c1ccc(Cl)cc1)c1ccc2c(c1)c(-c1cccc(Cl)c1)cc(=O)n2C [Tipifarnib (Zarnestra)]
- inhibition of growth at 5 µM [1, 10]: 6.5%
- IC50 [7]: 0.6 nM

Compound: CC(C)(C)C#Cc1cc(N(C(=O)[C@H]2CC[C@H](C)CC2)[C@H]2CC[C@H](O)CC2)c(C(=O)O)s1 [VX-222]
- IC50 (HCV polymerase): 940 to 1200 nM
- inhibition of growth at 5 µM [1, 10]: 9.6%

Compound: COc1nc(C)cnc1NS(=O)(=O)c1cccnc1-c1ccc(-c2nnco2)cc1 [Zibotentan (ZD4054)]
- IC50 (Endothelin A (ETA)): 21 nM
- inhibition of growth at 5 µM [1, 10]: 1.8%

Compound: MGCD-265
- IC50 (Tie2): 7 nM
- Host viability (%) mean [8]: 68.1%
- IC50 (Ron): 2 nM
- IC50 (VEGFR1): 3 nM
- IC50 (VEGFR3): 4 nM
- Parasite inhibition (%) mean [9]: 88.8%
